Tests used:
[1] = tested on: MCP-1 production of THP-1 cells; experiment: MCP-1 production of THP-1 cells stimulated with LPS; assay type: cell-based, human; conditions: for Inhibition rate of MCP-1 production of THP-1 cells: same method as Example 1 (LPS), concentration not given; for MCP-1 production of THP-1 cells (effect in words): 10 μg/ml LPS, compound added before LPS, supernatant 24 hours after stimulation
Procedure: The action of beraprost (BPS) on MCP-1 production was examined by using human monocyte/macrophage system leukemic cells THP-1. Lipopolysaccharide (LPS: Difco Corp.) reactive substrains were isolated from THP-1 cells (obtained from ATCC Corp.), and cultured in a RPMI 1640 medium (Gibco Corp.) containing 10% FCS in a flask. The THP-1 cells (1×10^5 cells) were dispensed to a 12-well plate, and activated with 10 μg/ml of LPS. BPS was added 5 minutes before LPS stimulation. A cell supernatant was obtained 24 hours after stimulation, and the amount of MCP-1 production was measured by using a human MCP-1 eraser kit (R&D Corp.). The amount of production was calculated based on a calibration curve formed in the range of 31.2 to 2000 pg/ml by using MCP-1 standards contained in the kit.
The actions of prostaglandin I2 (PGI2), prostaglandin E1 (PGE1), and prostaglandin E2 (PGE2) on MCP-1 production were examined by the same method as Example 1. As a result, MCP-1 production was inhibited by PGI2, PGE1, and PGE2 (FIG. 6).
The actions of the compounds shown in the table below on MCP-1 production by the same method as Example 1. The action of each of the compounds was shown by an inhibition rate. As a result, MCP-1 production was inhibited by these compounds (Table 2).

[2] = tested on: MCP-3 production of THP-1 cells; experiment: MCP-3 production of THP-1 cells stimulated with LPS; assay type: cell-based, human; conditions: 10 μg/ml LPS, supernatant 24 hours after stimulation
Procedure: The action of BPS on MCP-3 production was examined by using human monocyte/macrophage system leukemic cells THP-1. LPS reactive substrains were isolated from THP-1 cells, and cultured in a RPMI 1640 medium containing 10% FCS in a flask. THP-1 cells (1×10^6 cells) were dispensed to a 12-well plate, and activated with 10 μg/ml of LPS. BPS was added 5 minutes before LPS stimulation. A cell supernatant was obtained 24 hours after stimulation, and the amount of the MCP-3 produced was measured by using a MCP-3 detection method developed by the inventors. The amount of production was calculated based on a calibration curve formed in the range of 0.195 to 12.5 ng/ml by using MCP-3 standards.

[3] = tested on: streptozotocin-induced diabetic rats; experiment: Neurotransmission rate of the ischiatic nerve in streptozotocin-induced diabetic rats; assay type: in vivo, rat
[4] = tested on: MCP-1 production of human peripheral blood monocytes; experiment: MCP-1 production of human peripheral blood-derived monocytes stimulated with LPS; assay type: cell-based
Source text: The action of BPS on MCP-1 production was studied by using human peripheral blood-derived monocytes. The heparinized peripheral blood of a healthy person was superposed on a histo-pack (Sigma Corp.), and centrifuged to obtain a monocyte layer. The thus-obtained monocyte layer was reacted with magnetic beads (Miltenyi Biotec Corp.) of anti—CD3 and anti—CD19, and monocytes were purified by a negative selection method using a MACS column (Miltenyi Biotec Corp.). The thus-obtained monocytes were re-suspended in a RPMI 1640 medium so that 1×10^6 cells/ml of cells were obtained. The cells were dispensed to a 48-well plate, and activated with 10 ng/ml of LPS. BPS was added 5 minutes before LPS stimulation. A cell supernatant was obtained 24 hours after stimulation, and the amount of MCP-1 produced was measured by using a human MCP-1 eraser kit. The amount of production was calculated based on a calibration curve formed in the range of 31.2 to 2000 pg/ml by using MCP-1 standards contained in the kit.
(§1) The action of prostaglandin J2 (PGJ2) on MCP-1 production due to LPS or TPA simulation was studied by the same method as Examples 3 and 8 using monocytes derived from the human peripheral blood. PGJ2 was added 1 minute before stimulation. As a result, MCP-1 production due to stimulation by either LPS or TPA was inhibited by PGJ2(Table 3).

[5] = tested on: MCP-1 production of human peripheral blood monocytes; experiment: MCP-1 production of human peripheral blood monocytes stimulated with TPA; assay type: cell-based
Procedure: Monocytes derived from the human peripheral blood were isolated by the same method as Example 3, and stimulated with 25 nM 12-o-tetradecanoylphorbol 13-acetate (TPA) to induce MCP-1 production. The action of BPS on MCP-1 production was studied.
as §1

MCP-1 amount in blood = experiment: MCP-1 amount in LPS-induced blood of streptozotocin diabetic rats; assay type: in vivo, rat
Procedure: SD male rats were intravenously administered with 45 mg/kg streptozotocin to induce diabetes. At the eighth week after 2 mg/kg of LPS was administered to the rats to measure the MCP-1 amount in the blood before administration and 3 and 6 hours after administration. BPS was orally administered to the rats 30 minutes before LPS administration. Rats of the same age as the diabetic rat group were used as a normal group.

[6] = tested on: MCP-1 mRNA of THP-1 cells; experiment: Expression of MCP-1 mRNA of THP-1 cells stimulated with LPS; assay type: cell-based, human; conditions: 10 μg/ml LPS, RNA 24 hours after stimulation
Procedure: The action of BPS on MCP-1 production was examined by using human monocyte/macrophage system leukemic cells THP-1 and the amount of mRNA expression as an index. LPS reactive substrains were isolated from THP-1 cells, and cultured in a RPMI 1640 medium containing 10% FCS in a flask. THP-1 cells (1×10^6 cells) were dispensed to a petri dish having a diameter of 10 cm, and activated with 10 μg/ml of LPS. BPS was added 5 minutes before LPS stimulation. The total of RNA was extracted with a LiCl-urea solution (6M urea/3M LiCl/5 mM EDTA) 24 hours after stimulation, and dissolved in a TE solution (10 mm Tris-HCl/lmM EDTA, pH 8.0), and then proteins were removed with phenol and chloroform, followed by RNA recovery by ethanol precipitation. RNA was developed by formaldehyde-modified 1% agarose gel, and transferred to a Hybond-N filter (Amersham Corp.), and then MCP-1 mRNA was detected by using a ^32 human MCP-1 probe. The detection was carried out by using a X-ray film or imaging film, and the amount of expression was digitized by BAS2000.

[7] = tested on: glomerulonephritis rat model; experiment: Glomerulonephritis rat model (anti-glomerular basement membrane antibody); assay type: in vivo
Procedure: A glomerular basement membrane was administered with an antibody to form a glomerulonephritis rat model. The rats used were 9-week old male WKY rats which were purchased from Japan Charles River. The antibody was obtained by immunizing the rat glomerular basement membrane against rabbits. […] A glomerular lesion such as formation of the crescent was also confirmed by pathological findings, and an irreversible glomerulonephritis model could be formed by administering the antibody to the anti-glomerular basement membrane. MCP-1 production in the kidney was increased with the passage of days after administration of the antibody to produce infiltration of leukocytes such as macrophages and the like. 1 mg/kg of BPS was orally administered on consecutive days to study the action of BPS on MCP-1 production and infiltration of the macrophages. The MCP-1 production was studied by purifying messenger RNA (mRNA) from the rat kidneys, and determining the amount of MCP-1 mRNA expression by quantitative PCR. The macrophage infiltration was studied by immunostaining with an anti-macrophage antibody (ED-1), and then counting the macrophages infiltrated into the glomeruli under a microscope. […] Using the same glomerulonephritis model, the action of BPS on the amount of urea protein was studied 4 days and 7 days after administration of the antibody.

[8] = tested on: RANTES production of THP-1 cells; experiment: RANTES production of THP-1 cells stimulated with LPS; assay type: cell-based, human; conditions: LPS stimulation, 10 μM PGJ2 (5177 without PGJ2)
Procedure: THP-1 cells were prepared by the same method as Example 1, and stimulated with LPS to induce RANTES production. The amount of RANTES production was measured by RANTES eraser kit (R&D Corp.). The action of PGJ2 on RANTES production was studied.

With `O=C(O)CCc1cccc2c1O[C@H]1C[C@@H](O)C(/C=C/[C@@H](O)c3ccccc3)[C@@H]21` (stereo partly drawn) the “Inhibition rate of MCP-1 production of THP-1 cells” value (“Inhibition rate” for short) [1] was 58%.

With `CC(O)CCc1cccc2c1O[C@H]1C[C@@H](O)C(/C=C/[C@@H](O)C(C)(C)Oc3ccccc3)[C@@H]21` (stereo partly drawn) the “Inhibition rate” value [1] was 4%.

For `O=C(O)CCc1cccc2c1O[C@H]1C[C@@H](O)C(/C=C/[C@@H](O)C3CCCCC3)[C@@H]21` (stereo partly drawn), the “Inhibition rate” value [1] was 85%.

`CC(C)(CO)Cc1cccc2c1O[C@H]1C[C@@H](O)C(/C=C/[C@@H](O)C(C)(C)Oc3ccccc3)[C@@H]21` (stereo partly drawn) was tested, and the “Inhibition rate” value [1] was 28%.

In the case of `O=C(O)COc1cccc2c1O[C@H]1C[C@@H](O)C(/C=C/[C@@H](O)c3ccccc3)[C@@H]21` (stereo partly drawn), the “Inhibition rate” value [1] is reported as 61%.

For `O=C(O)CCc1cccc2c1O[C@H]1C[C@@H](O)C(/C=C/[C@@H](O)CC3CCCCC3)[C@@H]21` (stereo partly drawn), the “Inhibition rate” value [1] was 87%.

With `CC#CCC(C)[C@H](O)/C=C/[C@@H]1[C@H]2c3cccc(CCCC(=O)O)c3O[C@H]2C[C@H]1O` (mixture of isomers) [BPS, beraprost] the “MCP-3 production of THP-1 cells (effect in words)” value [2] was “inhibits dose-dependently”, the “decrease in the neurotransmission rate due to diabetes (effect in words)” value [3] was “significantly improved” and the “MCP-1 production of human peripheral blood monocytes (effect in words)” value ([4]; 10 ng/ml LPS, supernatant 24 hours after stimulation) was “inhibits dose-dependently”. For the same compound, the “MCP-1 production of THP-1 cells (effect in words)” value [1] was “inhibits dose-dependently”, the MCP-1 produced ([5]; 25 nM TPA stimulation, 100 nM BPS (224.7 without BPS)) was 184 pg/1×10^6 cells and the “MCP-1 amount in blood” value (MCP-1 amount in blood; BPS oral 30 minutes before 2 mg/kg LPS, 3 hours after) was 7.27 ± 2.55 ng/mL. For the same compound, the “MCP-1 amount in blood” value (MCP-1 amount in blood; BPS oral 30 minutes before 2 mg/kg LPS, 6 hours after) was 4.82 ± 4.40 ng/mL, the “MCP-1 amount in blood” value (MCP-1 amount in blood; BPS oral 30 minutes before LPS, before LPS administration) was 0.39 ± 0.13 ng/mL and the “expression of MCP-1 mRNA of THP-1 cells (effect in words)” value [6] was “inhibits dose-dependently”. For the same compound, the “MCP-1 mRNA expression in kidney (effect in words)” value ([7]; 1 mg/kg BPS oral on consecutive days, 4 days and 7 days after antibody, quantitative PCR) was “inhibition”, the “infiltration of macrophage per glomerulus (effect in words)” value ([7]; 1 mg/kg BPS oral on consecutive days, 4 days and 7 days after antibody, vs distilled water group) was “significantly inhibited” and the “amount of urea protein (effect in words)” value ([7]; 1 mg/kg BPS oral, 4 days and 7 days after administration of the antibody) was “significantly decreased”.

`CCCCC[C@H](O)/C=C/[C@H]1[C@H](O)CC(=O)[C@@H]1CCCCCCC(=O)O` [PGE1, prostaglandin E1] was tested, and the “MCP-1 production of THP-1 cells (effect in words)” value [1] was “inhibited”.

With `CCCCC[C@H](O)/C=C/[C@H]1[C@H](O)CC(=O)[C@@H]1C/C=C\CCCC(=O)O` [PGE2, prostaglandin E2] the “MCP-1 production of THP-1 cells (effect in words)” value [1] was “inhibited”.

For `CCCCC[C@H](O)/C=C/[C@@H]1[C@H]2C/C(=C/CCCC(=O)O)O[C@H]2C[C@H]1O` [PGI2, prostaglandin I2], the “MCP-1 production of THP-1 cells (effect in words)” value [1] was “inhibited”.

`CCCCC[C@H](O)/C=C/[C@H]1C(=O)C=C[C@@H]1C/C=C\CCCC(=O)O` [PGJ2, prostaglandin J2] showed an MCP-1 ([4]; LPS 10 ng/ml + PGJ2 10 μM (21872 with LPS alone)) of 6 pg/10^6 cells, an RANTES produced [8] of 2403 pg/5×10^5 cells and an MCP-1 ([5]; TPA 25 nM + PGJ2 10 μM (225 with TPA alone)) of 2 pg/10^6 cells.

— patent US6653345B2, “C-C chemokine synthesis inhibitor” (Toray Industries, Inc., priority 1997, dated 2003)
